Experimental data as given in EPA's ToxRefDB 2.

Columns and labels:
[1] = system: dog; details: Subchronic oral toxicity in nonrodent, beagle, Feed, dose end: 13 week, group: systemic, systemic / clinical chemistry / globulins / globulins + systemic / clinical chemistry / protein / protein + systemic / hematology / platelet…
[2] = system: rat; details: Multigenerational reproductive toxicity study, other, Oral, Feed, dose end: 2 generation
[3] = system: rat; details: Prenatal developmental toxicity study, other, Oral, Gavage/Intubation, dose end: 15 GD
[4] = system: rat; details: Subchronic oral toxicity in rodents, other, Feed, dose end: 13 week, group: systemic, systemic / pathology microscopic / stomach / erosion + systemic / pathology microscopic / stomach / inflammation + systemic / pathology …
[5] = system: rat; details: Subchronic oral toxicity in rodents, other, Feed, dose end: 13 week, group: systemic
[6] = system: rat; details: Prenatal developmental toxicity study, other, Oral, Gavage/Intubation, dose end: 15 GD; remark: listed apart in the source
[7] = system: rat; details: Subchronic oral toxicity in rodents, Fischer, Feed, dose end: 13 week, group: systemic, systemic / clinical chemistry / thyroxine (t4) / thyroxine (t4), total + systemic / clinical chemistry / triiodothyronine (t3) / …
[8] = system: rat; details: Prenatal developmental toxicity study, other, Oral, Gavage/Intubation, dose end: 15 GD; remark: listed apart in the source
[9] = group: offspring, systemic / organ weight / spleen / absolute + systemic / organ weight / spleen / relative to body weight + developmental / offspring …
[10] = group: offspring, systemic / organ weight / spleen / absolute + systemic / organ weight / spleen / relative to body weight + systemic / organ weight / thymus…
[11] = group: parental, systemic / in life observation / body weight / body weight + systemic / in life observation / clinical signs / general pallor
[12] = group: developmental, developmental / developmental malformation / bone / wavy
[13] = group: maternal, systemic / in life observation / body weight / body weight gain
[14] = systemic / in life observation / body weight / body weight + systemic / in life observation / food consumption / food efficiency + systemic…
[15] = group: developmental, developmental / developmental malformation / bone / fused + developmental / developmental malformation / bone / incomplete ossification
[16] = group: maternal, systemic / in life observation / body weight / body weight gain + systemic / in life observation / food consumption / food consumption
[17] = group: maternal, systemic / in life observation / body weight / body weight gain + systemic / in life observation / food consumption / food consumption + …
[18] = group: developmental, developmental / developmental malformation / bone / incomplete ossification + developmental / developmental malformation / bone / wavy + …

`CCCCCCCCn1sc(Cl)c(Cl)c1=O` [4,5-Dichloro-2-octyl-3(2H)-isothiazolone] was tested, and the LEL [1] was 45.9 mg/kg/day, the LOAEL [1] was 45.9 mg/kg/day and the NEL [1] was 10.1 mg/kg/day. For the same molecule, the NOAEL [1] was 10.1 mg/kg/day, the NEL [2, 9] was 10 mg/kg/day and the NOAEL [2, 9] was 10 mg/kg/day. The LEL [2, 10] was 20 mg/kg/day, the LOAEL [2, 10] was 20 mg/kg/day and the LOAEL ([2]; group: parental, systemic / in life observation / body weight / body weight + systemic / in life observation / body weight / body weight gain) was 40 mg/kg/day. For the same molecule, the LEL ([2]; group: parental, systemic / in life observation / body weight / body weight + systemic / in life observation / body weight / body weight gain + systemic / in…) was 40 mg/kg/day, the NEL [2, 11] was 20 mg/kg/day and the NOAEL [2, 11] was 20 mg/kg/day. The LEL [3, 12] was 100 mg/kg/day, the LOAEL [3, 12] was 100 mg/kg/day and the NEL [3, 12] was 30 mg/kg/day. It also gave an NOAEL [3, 12] of 30 mg/kg/day, an LEL [3, 13] of 10 mg/kg/day and an NEL [3, 13] of under 10 mg/kg/day. It also gave an LOAEL ([3]; group: maternal, systemic / in life observation / clinical signs / defecation + systemic / in life observation / food consumption / food consumption) of 30 mg/kg/day, an NOAEL ([3]; group: maternal, systemic / in life observation / clinical signs / defecation + systemic / in life observation / food consumption / food consumption + …) of 10 mg/kg/day and an LEL [4] of 60.7 mg/kg/day. It also gave an LOAEL [4] of 60.7 mg/kg/day, an NEL [4] of 32.5 mg/kg/day and an NOAEL [4] of 32.5 mg/kg/day.

For `CC(C)Nc1nc(N)nc(Cl)n1` [Deethylatrazine], the LOAEL ([5]; systemic / in life observation / body weight / body weight + systemic / in life observation / food consumption / food efficiency) was 35.1 mg/kg/day, the LEL [5, 14] was 35.1 mg/kg/day and the NEL [5, 14] was 3.2 mg/kg/day. The NOAEL [5, 14] was 3.2 mg/kg/day, the LEL [6, 15] was 100 mg/kg/day and the LOAEL [6, 15] was 100 mg/kg/day. For the same molecule, the NEL [6, 15] was 25 mg/kg/day, the NOAEL [6, 15] was 25 mg/kg/day and the LEL [6, 16] was 25 mg/kg/day. The LOAEL [6, 16] was 25 mg/kg/day, the NEL [6, 17] was 5 mg/kg/day and the NOAEL [6, 17] was 5 mg/kg/day.

With `CNC.O=C(O)COc1ccc(Cl)cc1Cl` [2,4-D, Dimethylamine salt] the LEL [7] was 120 mg/kg/day, the LOAEL [7] was 120 mg/kg/day and the NEL [7] was 18.1 mg/kg/day. For the same molecule, the NOAEL [7] was 18.1 mg/kg/day, the LOAEL [8, 18] was 100 mg/kg/day and the NEL [8, 18] was 12.5 mg/kg/day. The NOAEL [8, 18] was 50 mg/kg/day, the LEL ([8]; group: developmental, developmental / developmental malformation / general / [other]) was 50 mg/kg/day and the LEL [8, 16] was 50 mg/kg/day. The LOAEL [8, 16] was 50 mg/kg/day, the NEL [8, 17] was 12.5 mg/kg/day and the NOAEL [8, 17] was 12.5 mg/kg/day.
